Consider five compounds from patent publication US20250332101A1, “Composition” (priority 2018, published 2025).

Entries after “also recorded” stand apart in the source; their conditions may differ.

A short description of data set [1]: Aqueous solubility. The class given is physicochemical.
For data set [2], the system named is HCE-S transwell barrier model. Nature of the data set: HCE-S transwell barrier: transcytosis of model drugs. The class given is cell-based, human. Conditions: pre-treatment of HCE-S for 2 h with 300 μM. As to the method: HCE-S barrier models for transcytosis assays were prepared using an adaptation of a previously described method (Reichl (2008)). HCE-S cells (5×10^4 cells/well) were seeded on transwell inserts (polycarbonate, 3 μm pore size, 1.13 cm^2) and maintained for 7 days refreshing the medium in the apical and basal chambers every second day. After this time cells were cultured for a further 10 days at an apical air interface to encourage development of a multilayer barrier. Prior to each experiment culture medium was replaced with phenol red free DMEM and barrier integrity measured via transepithelial resistance (TER). […]
FIGS. 21A-21D and FIGS. 22Ai-22Biii. Baseline TER was recorded before addition of […] 3-OH-C12 HSL in micelles (assuming 100% drug loading) or equivalent concentrations of micelles only (vehicle control) dissolved in phenol-red free culture medium for 2 h. After this time, TER was recorded before culture medium was replaced with fresh. To the apical chamber, a model drug molecule (FITC-dextran or Avastin) was added and the concentration of this agent in the basolateral chamber was measured either by monitoring FITC fluorescence (FITC-dextran) versus a standard curve of known concentrations or using a commercially available Avastin sandwich ELISA kit as previously described (Davis et al. (2014)). […]

In data set [3] the test system is HCE-S tight junctions. Nature of the data set: HCE-S transwell barrier: transepithelial resistance (TER). The class given is cell-based, human. Particulars: 2 h exposure, up to 300 μM 3-OH-C12 HSL. Here is the method:
(§1) HCE-S cells (Immortalized Human Corneal Epithelial Cells) were cultured as a monolayer in 90% DMEM supplemented with 10% heat inactivated FBS and penicillin-streptomycin (100 U/mL). Cells were cultured at 37° C. in a humidified incubator with 5% CO2 and growth medium was replaced every three days. HCE-S populations were grown to 80% confluence before passage to 20% using 0.25% Trypsin-EDTA. Prior to each experiment cell populations were estimated using a haemocytometer and trypan blue exclusion assay.
HCE-S barrier models for transcytosis assays were prepared using an adaptation of a previously described method (Reichl (2008)). HCE-S cells (5×10^4 cells/well) were seeded on transwell inserts (polycarbonate, 3 μm pore size, 1.13 cm^2) and maintained for 7 days refreshing the medium in the apical and basal chambers every second day. […] Prior to each experiment culture medium was replaced with phenol red free DMEM and barrier integrity measured via transepithelial resistance (TER). […]
FIGS. 21A-21D and FIGS. 22Ai-22Biii. Baseline TER was recorded before addition of […] 3-OH-C12 HSL in micelles (assuming 100% drug loading) or equivalent concentrations of micelles only (vehicle control) dissolved in phenol-red free culture medium for 2 h. After this time, TER was recorded before culture medium was replaced with fresh. […]

For data set [4] the following is noted: compared with 3-oxo-C12 HSL; cited from earlier work.
Data set [5] relates to immortalized human corneal epithelial cell line (HCE-S). Nature of the data set: Cell toxicity test in corneal epithelial cells. Conditions: compared with 3-oxo-C12 HSL and Benzalkonium chloride (BAK). The class given is cell-based. As to the method: as §1
In data set [6] the test system is RGC in OHT Dark Agouti (DA) rats. The data set is classed as in vivo. Particulars: topical eye drops from two days prior to induction, three weeks, versus OHT only.
For data set [7] the following is noted: topical formulation, Sigurdsson et al; cited from earlier work.
Data set [8] relates to New Zealand albino male rabbits (eye). Particulars: known; rabbits and humans; cited from earlier work.

For the compound `CCCCCCCCCC(O)CC(=O)NC1CCOC1=O` (centres unmarked) [3-OH-C12 HSL, 3-hydroxydodecanoyl homoserine lactone], the water solubility result in data set [1] is “low water solubility”. In data set [2], the “transcytosis of 40 kDa FITC Dextran” value is “significantly enhanced” and the “transcytosis of 149 kDa Avastin” value is reported as “significantly enhanced”. In addition, the “disruption of tight junctions (TER, percentage of control)” value in data set [3] is “reversible disruption of Tight junctions”. In addition, in data set [4], the resistance to hydrolysis entry is “higher resistance to hydrolysis”. Moreover, the “cell toxicity (tolerability)” value in data set [5] is reported as “better tolerated”.

Consider `COc1cc(/C=C/C(=O)CC(=O)/C=C/c2ccc(O)c(OC)c2)ccc1O` [FC], for which the “RGC density / RGC loss (neuroprotective effect)” value in data set [6] was “did not have this effect; also recorded: no significant protective effect; also recorded: not FC treatment, significantly reduced RGC loss”.

Regarding `COc1cc(C=CC(=O)CC(=O)C=Cc2ccc(O)c(OC)c2)ccc1O` [curcumin, 1,7-bis-(4-hydroxy-3-methoxyphenyl)-1,6-heptadiene-3,5-dione], the “solubility in distilled water” value in data set [1] (2 mg/mL curcumin) is reported as “very poorly soluble”.

Regarding `C[C@@H]1C[C@H]2[C@@H]3CCC4=CC(=O)C=C[C@]4(C)[C@@]3(F)[C@@H](O)C[C@]2(C)[C@@]1(O)C(=O)CO` [dexamethasone], in data set [7], the “entry into the retina by systemic absorption route” value is 40% and the “entry into the retina via topical penetration” value is recorded as 60%.

Regarding Benzalkonium chloride [BAK], in data set [8], the ocular irritation result is recorded as “potent ocular irritation”.
